Laboratory results as given in ChEMBL document CHEMBL3132769, “Fragment growing to retain or alter the selectivity of anchored kinase hinge-binding fragments” (Medchemcomm, 2014).

Assays:
[1] = molecular target: Platelet-derived growth factor receptor alpha (Homo sapiens) (UniProt P16234); test: Inhibition of human PDGFR alpha catalytic domain expressed in baculovirus assessed as substrate phosphorylation using fluorescence-labelled peptides as substrate at 8 uM after 90 mins by microfluidic peptide phosphorylation assay
[2] = molecular target: Ribosomal protein S6 kinase alpha-3 (Homo sapiens) (UniProt P51812); test: Inhibition of human full length RSK2 expressed in baculovirus assessed as substrate phosphorylation using fluorescence-labelled peptides as substrate at 0.2 uM after 90 mins by microfluidic peptide phosphorylation assay
[3] = molecular target: Protein kinase C alpha type (Homo sapiens) (UniProt P17252); test: Inhibition of human truncated PKC alpha expressed in baculovirus assessed as substrate phosphorylation using fluorescence-labelled peptides as substrate at 0.2 uM after 90 mins by microfluidic peptide phosphorylation assay
[4] = molecular target: Cyclin-dependent kinase 2 (Homo sapiens) (UniProt P24941); test: Inhibition of human full length CDK2 expressed in baculovirus assessed as substrate phosphorylation using fluorescence-labelled peptides as substrate at 2 uM after 90 mins by microfluidic peptide phosphorylation assay
[5] = molecular target: Receptor-type tyrosine-protein kinase FLT3 (Homo sapiens) (UniProt P36888); test: Inhibition of human FLT3 catalytic domain expressed in baculovirus assessed as substrate phosphorylation using fluorescence-labelled peptides as substrate at 0.1 uM after 90 mins by microfluidic peptide phosphorylation assay
[6] = molecular target: Dual specificity tyrosine-phosphorylation-regulated kinase 1A (Rattus norvegicus) (UniProt Q63470); test: Inhibition of rat full length DYRK1a expressed in Escherichia coli cell assessed as substrate phosphorylation using fluorescence-labelled peptides as substrate at 0.1 uM after 90 mins by microfluidic peptide phosphorylation assay
[7] = molecular target: Insulin receptor (Homo sapiens) (UniProt P06213); conditions: 0.1 uM
Description: Inhibition of human INSR catalytic domain expressed in baculovirus assessed as substrate phosphorylation using fluorescence-labelled peptides as substrate at 0.1 uM after 90 mins by microfluidic peptide phosphorylation assay

[8] = molecular target: T1, Serine/threonine-protein kinase 3 (Homo sapiens) (UniProt Q13188); test: Inhibition of human full length MST2 expressed in baculovirus assessed as substrate phosphorylation using fluorescence-labelled peptides as substrate at 70 uM after 90 mins by microfluidic peptide phosphorylation assay
T1 sequence (whole entry): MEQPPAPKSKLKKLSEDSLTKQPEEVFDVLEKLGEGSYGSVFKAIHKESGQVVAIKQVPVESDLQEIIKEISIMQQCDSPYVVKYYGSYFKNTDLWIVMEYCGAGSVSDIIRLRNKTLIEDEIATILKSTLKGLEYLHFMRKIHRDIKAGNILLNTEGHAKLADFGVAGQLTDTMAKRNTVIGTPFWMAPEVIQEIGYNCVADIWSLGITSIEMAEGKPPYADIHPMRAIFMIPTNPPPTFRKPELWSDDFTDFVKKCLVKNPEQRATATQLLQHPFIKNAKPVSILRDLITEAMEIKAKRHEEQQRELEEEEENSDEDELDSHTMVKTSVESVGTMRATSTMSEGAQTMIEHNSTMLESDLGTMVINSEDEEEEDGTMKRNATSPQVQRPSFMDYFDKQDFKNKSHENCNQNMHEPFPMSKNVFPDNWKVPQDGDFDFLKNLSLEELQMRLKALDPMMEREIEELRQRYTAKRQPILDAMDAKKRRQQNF

[9] = tested on: T2, Receptor-type tyrosine-protein kinase FLT3 (Homo sapiens), P36888 [D835Y]; test: Inhibition of human FLT3 D835Y mutant catalytic domain expressed in baculovirus assessed as substrate phosphorylation using fluorescence-labelled peptides as substrate at 70 uM after 90 mins by microfluidic peptide phosphorylation assay
T2 sequence (whole entry): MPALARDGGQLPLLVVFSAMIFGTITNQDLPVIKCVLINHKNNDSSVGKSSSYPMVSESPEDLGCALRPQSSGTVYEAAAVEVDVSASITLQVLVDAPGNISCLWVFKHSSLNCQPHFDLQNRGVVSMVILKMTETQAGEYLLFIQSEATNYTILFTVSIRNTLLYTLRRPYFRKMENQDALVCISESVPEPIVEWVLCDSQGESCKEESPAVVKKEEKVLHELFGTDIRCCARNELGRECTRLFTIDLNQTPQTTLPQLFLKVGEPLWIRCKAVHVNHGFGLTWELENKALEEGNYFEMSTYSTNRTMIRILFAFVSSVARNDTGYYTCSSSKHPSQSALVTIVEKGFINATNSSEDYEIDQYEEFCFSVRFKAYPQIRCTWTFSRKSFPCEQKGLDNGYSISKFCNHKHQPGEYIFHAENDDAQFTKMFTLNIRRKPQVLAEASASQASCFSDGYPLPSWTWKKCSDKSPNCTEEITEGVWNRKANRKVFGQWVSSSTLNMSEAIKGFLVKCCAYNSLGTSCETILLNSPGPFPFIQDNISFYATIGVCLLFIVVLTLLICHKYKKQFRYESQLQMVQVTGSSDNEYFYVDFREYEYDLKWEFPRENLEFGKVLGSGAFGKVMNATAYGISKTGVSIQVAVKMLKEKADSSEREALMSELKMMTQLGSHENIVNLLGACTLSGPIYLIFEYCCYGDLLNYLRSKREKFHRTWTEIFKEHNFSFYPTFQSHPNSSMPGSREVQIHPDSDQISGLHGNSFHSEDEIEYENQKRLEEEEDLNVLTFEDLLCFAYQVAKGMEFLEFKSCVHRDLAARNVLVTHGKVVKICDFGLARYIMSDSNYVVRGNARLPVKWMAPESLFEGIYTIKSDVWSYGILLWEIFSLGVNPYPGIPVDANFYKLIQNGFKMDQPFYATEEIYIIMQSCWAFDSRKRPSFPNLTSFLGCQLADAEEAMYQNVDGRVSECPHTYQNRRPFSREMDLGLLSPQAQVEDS

[10] = molecular target: Mitogen-activated protein kinase 1 (Homo sapiens) (UniProt P28482); test: Inhibition of human full length ERK2 expressed in Escherichia coli cell assessed as substrate phosphorylation using fluorescence-labelled peptides as substrate at 70 uM after 90 mins by microfluidic peptide phosphorylation assay
[11] = molecular target: T3, Aurora kinase C (Homo sapiens) (UniProt Q9UQB9); test: Inhibition of human full length AurC expressed in baculovirus assessed as substrate phosphorylation using fluorescence-labelled peptides as substrate at 420 uM after 90 mins by microfluidic peptide phosphorylation assay
T3 sequence (whole entry): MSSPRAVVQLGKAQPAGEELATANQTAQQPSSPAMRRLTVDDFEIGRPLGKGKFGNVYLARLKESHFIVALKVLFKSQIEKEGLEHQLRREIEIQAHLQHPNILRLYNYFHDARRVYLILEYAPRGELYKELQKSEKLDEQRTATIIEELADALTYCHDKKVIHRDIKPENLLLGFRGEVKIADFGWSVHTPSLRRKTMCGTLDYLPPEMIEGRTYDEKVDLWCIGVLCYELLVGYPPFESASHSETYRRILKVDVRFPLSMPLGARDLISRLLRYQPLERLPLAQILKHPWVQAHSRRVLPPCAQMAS

[12] = molecular target: Mitogen-activated protein kinase 1 (Homo sapiens) (UniProt P28482); test: Inhibition of human full length ERK2 expressed in Escherichia coli cell assessed as substrate phosphorylation using fluorescence-labelled peptides as substrate at 420 uM after 90 mins by microfluidic peptide phosphorylation assay

Chain of Mitogen-activated protein kinase 1 (Homo sapiens) (P28482 whole entry): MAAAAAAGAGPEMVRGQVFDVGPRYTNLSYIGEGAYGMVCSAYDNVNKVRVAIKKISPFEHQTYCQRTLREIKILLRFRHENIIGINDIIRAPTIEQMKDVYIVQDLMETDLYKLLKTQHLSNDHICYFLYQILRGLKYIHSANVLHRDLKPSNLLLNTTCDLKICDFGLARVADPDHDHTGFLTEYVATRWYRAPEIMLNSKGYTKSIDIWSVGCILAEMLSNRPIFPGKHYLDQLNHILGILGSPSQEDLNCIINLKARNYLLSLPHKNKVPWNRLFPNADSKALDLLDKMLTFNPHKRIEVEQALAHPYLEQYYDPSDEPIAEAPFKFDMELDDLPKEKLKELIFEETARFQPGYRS
Chain of Platelet-derived growth factor receptor alpha (Homo sapiens) (P16234 whole entry, the tested form may be a part): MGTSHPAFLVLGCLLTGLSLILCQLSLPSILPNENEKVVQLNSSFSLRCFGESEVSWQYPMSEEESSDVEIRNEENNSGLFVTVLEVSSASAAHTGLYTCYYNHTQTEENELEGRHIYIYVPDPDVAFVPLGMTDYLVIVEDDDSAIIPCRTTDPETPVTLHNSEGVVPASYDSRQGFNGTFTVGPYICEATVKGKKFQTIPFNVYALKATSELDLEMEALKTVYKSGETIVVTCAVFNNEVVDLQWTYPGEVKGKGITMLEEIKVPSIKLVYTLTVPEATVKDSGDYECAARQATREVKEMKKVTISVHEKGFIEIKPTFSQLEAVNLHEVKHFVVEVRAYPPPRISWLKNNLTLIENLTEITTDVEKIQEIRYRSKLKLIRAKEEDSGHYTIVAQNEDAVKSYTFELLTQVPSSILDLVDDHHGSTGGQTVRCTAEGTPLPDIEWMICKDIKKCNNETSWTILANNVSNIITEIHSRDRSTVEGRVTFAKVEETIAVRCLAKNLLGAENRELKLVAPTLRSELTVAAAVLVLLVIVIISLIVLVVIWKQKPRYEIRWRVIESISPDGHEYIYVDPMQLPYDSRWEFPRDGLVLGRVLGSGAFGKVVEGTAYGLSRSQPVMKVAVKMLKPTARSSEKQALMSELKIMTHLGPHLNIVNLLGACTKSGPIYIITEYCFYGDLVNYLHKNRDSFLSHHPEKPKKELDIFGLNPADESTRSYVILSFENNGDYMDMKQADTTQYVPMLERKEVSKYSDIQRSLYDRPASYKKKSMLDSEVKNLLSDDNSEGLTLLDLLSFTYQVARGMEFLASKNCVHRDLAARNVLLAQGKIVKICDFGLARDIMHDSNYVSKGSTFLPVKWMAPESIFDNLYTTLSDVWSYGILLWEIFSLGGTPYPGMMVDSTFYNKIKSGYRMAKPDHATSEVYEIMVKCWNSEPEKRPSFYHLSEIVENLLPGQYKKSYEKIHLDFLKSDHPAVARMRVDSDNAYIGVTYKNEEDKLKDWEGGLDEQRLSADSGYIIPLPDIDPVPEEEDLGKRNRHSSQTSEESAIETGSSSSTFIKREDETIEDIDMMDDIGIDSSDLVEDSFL
Chain of Ribosomal protein S6 kinase alpha-3 (Homo sapiens) (P51812 whole entry, the tested form may be a part): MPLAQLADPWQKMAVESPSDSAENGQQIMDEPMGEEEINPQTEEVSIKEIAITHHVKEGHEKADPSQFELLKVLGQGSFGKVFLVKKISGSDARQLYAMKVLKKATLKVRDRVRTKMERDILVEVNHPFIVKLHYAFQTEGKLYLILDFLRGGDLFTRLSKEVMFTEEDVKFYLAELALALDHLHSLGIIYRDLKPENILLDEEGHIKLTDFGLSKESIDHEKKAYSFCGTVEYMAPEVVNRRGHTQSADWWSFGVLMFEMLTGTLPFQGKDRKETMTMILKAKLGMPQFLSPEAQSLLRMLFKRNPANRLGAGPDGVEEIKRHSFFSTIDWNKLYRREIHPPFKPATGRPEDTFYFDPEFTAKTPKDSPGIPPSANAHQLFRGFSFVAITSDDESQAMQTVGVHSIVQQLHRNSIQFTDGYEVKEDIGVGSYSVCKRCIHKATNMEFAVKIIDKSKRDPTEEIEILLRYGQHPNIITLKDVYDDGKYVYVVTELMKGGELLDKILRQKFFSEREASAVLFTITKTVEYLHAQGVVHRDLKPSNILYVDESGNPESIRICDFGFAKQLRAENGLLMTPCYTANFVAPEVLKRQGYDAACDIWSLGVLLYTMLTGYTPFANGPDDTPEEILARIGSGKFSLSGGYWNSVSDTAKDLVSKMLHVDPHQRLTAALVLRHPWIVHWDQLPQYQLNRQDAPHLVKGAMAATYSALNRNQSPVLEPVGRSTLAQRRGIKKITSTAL

## NCC1CCN(c2ncnc3[nH]ccc23)CC1
[1]
  inhibition: 0%

## Clc1ccc(C2(c3ccc(-c4ncnc5[nH]cnc45)cc3)CCNCC2)cc1
[2]
  inhibition: 55%
[3]
  inhibition: 77.5%

## NC1CCN(c2ncnc3[nH]ccc23)CC1
[4]
  inhibition: 0%

## C[C@H](CN(C)C)Oc1nc(Nc2cc3cccc(Cl)c3cn2)cnc1C#N
[5]
  inhibition: 7%
[6]
  inhibition: 3.5%
[7]
  inhibition: 0%

## CNCc1ccc(-c2ncnc3[nH]cnc23)cc1
[8]
  inhibition: 88%
[9]
  inhibition: 69%
[10]
  inhibition: 29%

## c1nc(N2CCOCC2)c2nc[nH]c2n1
[11]
  inhibition: 95.5%
[12]
  inhibition: 68%
